From patent US10053432B2, “Substituted [1,2,4]triazole and imidazole compounds” (BASF SE, priority 2013, dated 2018)

Tests used:
Assay type in all cases: cell-based
Details in all cases: at 31 ppm; absorption at 405 nm 7 days after inoculation; relative to active compound-free control (100%)
[1] = test system: Botrytis cinerea; experiment: Activity against the grey mold Botrytis cinerea in the microtiterplate test (Botrci)
[2] = test system: Pyricularia oryzae
[3] = test system: Septoria tritici; experiment: Activity against leaf blotch on wheat caused by Septoria tritici (Septtr), microtiterplate test

Measured: growth (relative growth in % of the pathogen)

OC(Cn1cncn1)(c1ccc(C#CC2CC2)cc1Cl)C1CC1 (stereo not drawn) [Compound I-1, 1-[2-chloro-4-(2-cyclopropylethynyl)phenyl]-1-cyclopropyl-2-(1,2,4-triazol-1-yl)ethanol]
0%: all assays above
